The values that follow come from patent publication US9408393B2, “Bismuth-thiols as antiseptics for agricultural, industrial and other uses” (Microbion Corporation, priority 2010, dated 2016).

Assay [1] relates to marine diatom. As to the kind of experiment: Marine diatom settlement inhibition. To be noted: 0.1 μg/ml. The protocol:
The effect of three bismuth containing compounds, bismuth dimercaprol (BisBAL), bismuth dimercaptotoluene (BisTOL), and bismuth ethanedithiol (BisEDT), on growth of a marine diatom was determined according to techniques practiced in the art. Settlement of marine diatoms (diatoms per fov) was inhibited by increasing concentrations of each of the three compounds (0.001, 0.01, 0.1, 1.0, and 10.0 μg/ml). […] 1987; 41:435-64; Domenico et al., Antimicrob Agents and Chemother. 2001; 45(5):1417-21; Halwani et al., Int J Pharm. 2008; 358:278-84; Johnson et al., Clin Infect Dis. 2007; 45(4):409-415. ADA Council on Scientific Affairs. Direct and indirect restorative materials. JADA 2003; 134:463-72. Alliance for Coastal Technologies (ACT). 2004. Biofouling Prevention Technologies for Coastal Sensors/Sensor Platforms. University of Maryland Center of Environmental Science, Workshop Proceedings, November 2003. UMCES Technical Report Series No. TS-426-04-CBL, Solomons, M D. Athanassiadis et al., Aust Dent J 2007; 52:S64-82. Alt et al., Antimicrob Agents Chemother 2004; 48:4084-88. Bayston et al., Biomaterials 2009; 30:3167-73. Bernardo et al., JADA 2007; 138:775-783. Beytha et al., J Dent 2007; 35:201-206. Bohner et al., J Pharm Sci 1997; 86:565-72. Bruxton, Eng News 1908; 59,525; Chem. Abs., 2:2010. Bueno et al. Oral Surg Oral Med Oral Pathol Oral Radiol Endod 2009; 107:e65-9. […]

Assay [2] deals with barnacle larvae. As to the kind of experiment: Barnacle larvae settlement inhibition. On the procedure: Compounds, BisBAL and BisTOL were included in an assay to determine the inhibitory activity of each compound on barnacle larvae settlement behavior. Methods were performed according to techniques practiced in the art. […] In another experiment, BisEDT was dissolved either directly in natural seawater or first dissolved in DMSO and then diluted in natural seawater. The EC50 measurements were not statistically different.

The test system of assay [3] is Enteromorpha spores. As to the kind of experiment: Inhibition of algae spore germination. To be noted: up to ten micrograms per ml. On the procedure: The effect of three bismuth containing compounds, bismuth dimercaprol (BisBAL), bismuth dimercaptotoluene (BisTOL), and bismuth ethanedithiol (BisEDT), on the settlement of algae was determined, particularly the ability of each compound to inhibit germination of Enteromorpha spores. Each compound was tested at 0.001, 0.01, 0.1, 1.0, and 10.0 μg/ml.

Assay [4] relates to M. hydrocarbonoclasicus. As to the kind of experiment: MIC against marine bacteria. It is filed as cell-based. To be noted: marine bacterium M. hydrocarbonoclasicus. The protocol: (§1) This example describes the antimicrobial activity of bismuth containing compounds. The MIC values of three bismuth containing compounds, bismuth dimercaprol (BisBAL), bismuth dimercaptotoluene (BisTOL), and bismuth ethanedithiol (BisEDT), against three different marine bacteria were determined using methods routinely practiced by persons skilled in the art.

The test system of assay [5] is H. marina. As to the kind of experiment: MIC against marine bacteria. The assay is classed as cell-based. To be noted: marine bacterium H. marina. On the procedure: as §1
The test system of assay [6] is V. alginolyticus. As to the kind of experiment: MIC against marine bacteria. The assay is classed as cell-based. To be noted: marine bacterium V. alginolyticus. The protocol:
as §1

As usually defined, the MIC is the smallest concentration in the dilution series that meets the test's criterion for growth inhibition. Consider bismuth dimercaptotoluene [BisTOL], for which the “Inhibition of marine diatom settlement” value in assay [1] is given as “approximately 30%”. The “EC50 (concentration at which 50% settlement inhibition occurs)” value in assay [2] came out at 15.4 ppm. Further, the “Effect on germination of algae spores” value in assay [3] is listed as “no inhibitory effect”. Besides, the MIC in assay [4] worked out at 0.4 mg/L; in assay [5], 7.2 mg/L; in assay [6], 1 mg/L.
